Assay results reported in patent publication US20130143812A1, “ANTI-INFLAMMATORY DRUG” (SEKISUI MEDICAL CO., LTD., priority 2010, published 2013).

Experiments:
Assay type in all cases: cell-based
RAW264.7 cells [1] = assay: Expression of M2 macrophage markers in RAW264.7 cells cultured with activin A and SB431542; conditions: SB431542 0.1 to 1 μM added with activin A, 24 hours
Description: Activin A (10 ng/mL or 30 ng/mL) and SB431542 (0.1 to 1 μM, Santa Cruz Biotechnology, Inc., sc-204265) were added to RAW264.7 cells in combination as depicted in FIG. 2. Human Recombinant (R&D Systems, 338AC005) was used for activin A. After 24 hours, RNeasy Mini Kit (250) (Qiagen, Cat. Number 74106) was used for recovering the cells to extract RNA. The RNA extracted at step (1) was used for performing a reverse transcription reaction in accordance with the protocol of High Capacity cDNA Reverse Transcription Kit with RNase Inhibitor (ABI) to perform TaqMan PCR. Arginase-1, Mrc2 (mannose receptor 2), and IL-10 were selected as M2 macrophage markers to create respective TaqMan probes.

RAW264.7 cells [2] = assay: Macrophage marker expression in RAW264.7 cells with activin A, activin B or SB431542 and palmitic acid; conditions: for expression level of IL-6 / expression level of MCP-1 / expression level of arginase-1: compared to control
Description: (1) Induction of Macrophages by Activin Species Activin A (10 ng/mL), activin B (10 ng/mL), and SB431542 (0.1 to 1 μM) were added to RAW264.7 cells in combination as depicted in FIG. 4. Human Recombinant (R&D Systems, 338AC005) and Recombinant (R&D Systems, 659AB005) were used for activin A and activin B, respectively. After 30 minutes, palmitic acid (a proinflammatory substance) was added to the final concentration of 200 μM and, after eight hours, RNeasy Mini Kit (250) (Qiagen, Cat. Number 74106) was used for recovering the cells to extract RNA. The RNA extracted at step (1) was used for performing a reverse transcription reaction in accordance with the protocol of High Capacity cDNA Reverse Transcription Kit with RNase Inhibitor (ABI) to perform TaqMan PCR. Arginase-1 was selected as an M2 macrophage marker and IL-6 and MCP-1 were selected as M1 macrophage markers to create respective TaqMan probes. Analysis was performed in the same way as the expression analysis of macrophage markers of Example 1.

RAW264.7 cells [3] = assay: Macrophage marker expression in RAW264.7 cells with activin A, activin B or Fstl3 and palmitic acid; conditions: palmitic acid 200 μM
Description: (§1) Activin A (10 ng/mL), activin B (10 ng/mL), and Fstl3 (3 to 30 ng/mL) were added to RAW264.7 cells in combination as depicted in FIG. 5. Human Recombinant (R&D Systems, 338AC005), Recombinant (R&D Systems, 659AB005), and Follistatin-like 3 Recombinant (R&D Systems, 1255F3025) were used for activin A, activin B, and Fstl3, respectively. After 30 minutes, palmitic acid (a proinflammatory substance) was added to the final concentration of 200 μM and, after eight hours, RNeasy Mini Kit (250) (Qiagen, Cat. Number 74106) was used for recovering the cells to extract RNA.
Analysis was performed in the same way as Example 4. For each of palmitic acid, activin species, and Fstl3, the expression level is represented by a ratio when a measurement value of each marker relative to a measurement value of cyclophilin A in non-additive control is defined as one.

RAW264.7 cells [4] = assay: Arginase-1 expression in RAW264.7 cells with activin A, Fstl3, anti-Fstl3 antibody or mouse IgG and palmitic acid; conditions: Fstl3 30 ng/mL present with activin A 10 ng/mL, palmitic acid 200 μM
Description: as §1, with “Fstl3 (30 ng/mL), an anti-Fstl3 antibody or mouse IgG (0.3 to 10 μg/mL), and activin” for “Activin”, “(10” for “(10 ng/mL), activin B (10 ng/mL), and Fstl3 (3 to 30”, “6.” for “5.”
The RNA extracted at step (1) was used for performing a reverse transcription reaction in accordance with the protocol of High Capacity cDNA Reverse Transcription Kit with RNase Inhibitor (ABI) to perform TaqMan PCR. Arginase-1 was selected as an M2 macrophage marker to create TaqMan probes.

[5] = SB431542 0.1 to 1 μM with palmitic acid 200 μM, absence of activin species
[6] = SB431542 0.1 to 1 μM, activin A 10 ng/mL and palmitic acid 200 μM present
[7] = SB431542 0.1 to 1 μM, activin B 10 ng/mL and palmitic acid 200 μM present
[8] = SB431542 only (0.1 to 1 μM), without palmitic acid
[9] = palmitic acid 200 μM, absence of activin species, 8 hours

Molecule: NC(=O)c1ccc(-c2nc(-c3ccc4c(c3)OCO4)c(-c3ccccn3)[nH]2)cc1 [SB431542]
- activin A-induced increase in expression of arginase-1, Mrc2 and IL-10 (RAW264.7 cells [1]): reduced to the same level as control
- expression level of IL-6, effect of SB431542 (RAW264.7 cells [2]; [5]): constantly increased depending on the additive concentration
- palmitic acid-induced increase of MCP-1 expression, effect of SB431542 (RAW264.7 cells [2]; [5]): not changed
- expression level of IL-6, effect of SB431542 (RAW264.7 cells [2]; [6]): constantly increased depending on the additive concentration
- expression level of arginase-1, effect of SB431542 (RAW264.7 cells [2]; [6]): reduced depending on the additive concentration
- palmitic acid-induced increase of MCP-1 expression, effect of SB431542 (RAW264.7 cells [2]; [6]): not changed
- expression level of IL-6, effect of SB431542 (RAW264.7 cells [2]; [7]): constantly increased depending on the additive concentration
- expression level of arginase-1, effect of SB431542 (RAW264.7 cells [2]; [7]): reduced depending on the additive concentration
- palmitic acid-induced increase of MCP-1 expression, effect of SB431542 (RAW264.7 cells [2]; [7]): not changed
- expression level of IL-6 (RAW264.7 cells [2]; [8]): not changed or were slightly changed
- expression level of MCP-1 (RAW264.7 cells [2]; [8]): not changed or were slightly changed
- expression level of arginase-1 (RAW264.7 cells [2]; [8]): not changed or were slightly changed

Molecule: CCCCCCCCCCCCCCCC(=O)O [palmitic acid]
- expression level of IL-6 (RAW264.7 cells [2]; [9]): remarkably increased
- expression level of MCP-1 (RAW264.7 cells [2]; [9]): remarkably increased
- expression level of arginase-1 (RAW264.7 cells [2]; [9]): not changed or was slightly changed
- expression of IL-6, effect of palmitic acid (RAW264.7 cells [3]; 8 hours): increased
- expression of MCP1, effect of palmitic acid (RAW264.7 cells [3]; regardless of the presence of activin species, change negligible): increased

B1: Fstl3: Follistatin-like 3 Recombinant (R&D Systems, 1255F3025); binds to activins and inhibits binding to their receptor (protein, UniProt O95633 27-263, looked up)
Follistatin-related protein 3: MGSGNPAPGGVCWLQQGQEATCSLVLQTDVTRAECCASGNIDTAWSNLTHPGNKINLLGFLGLVHCLPCKDSCDGVECGPGKACRMLGGRPRCECAPDCSGLPARLQVCGSDGATYRDECELRAARCRGHPDLSVMYRGRCRKSCEHVVCPRPQSCVVDQTGSAHCVVCRAAPCPVPSSPGQELCGNNNVTYISSCHMRQATCFLGRSIGVRHAGSCAGTPEEPPGGESAEEEENFV
- expression of arginase-1, effect of Fstl3 (RAW264.7 cells [3]; Fstl3 30 ng/mL added concurrently with activin A 10 ng/mL): reduced
- expression level of MCP1, effect of FSTL3 (RAW264.7 cells [3]; Fstl3 3 to 30 ng/mL): not changed
- expression level of arginase-1, effect of FSTL3 (RAW264.7 cells [4]): reduced to the same level as the control
